Measured values from PMC10746543, “Design principles for cyclin K molecular glue degraders” (Nature Chemical Biology, 2023).
Where “and” joins values, the source holds several entries; their conditions need not be identical. Equal entries are not always repeated. Where two headings read alike, the source gives them in different places.

Legend:
CDK12–cyclin K = CDK12–cyclin K (Homo sapiens, UniProt Q9NYV4); assay: Lanthascreen kinase binding assay, CDK12; settings: for Lanthascreen raw signal, sheet CDK12: series r37, duplicates
Chain of CDK12–cyclin K (Q9NYV4 713-1052): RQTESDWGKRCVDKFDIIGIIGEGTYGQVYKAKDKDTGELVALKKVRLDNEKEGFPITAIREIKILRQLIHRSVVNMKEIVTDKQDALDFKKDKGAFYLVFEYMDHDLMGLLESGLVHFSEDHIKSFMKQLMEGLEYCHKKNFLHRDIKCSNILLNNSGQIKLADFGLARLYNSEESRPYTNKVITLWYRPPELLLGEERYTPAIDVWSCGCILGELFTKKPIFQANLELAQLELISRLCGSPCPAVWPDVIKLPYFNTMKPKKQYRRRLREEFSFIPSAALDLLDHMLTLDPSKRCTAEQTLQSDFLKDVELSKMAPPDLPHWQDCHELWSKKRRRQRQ
Chain of CDK12–cyclin K (O75909 1-267 partner limits assumed): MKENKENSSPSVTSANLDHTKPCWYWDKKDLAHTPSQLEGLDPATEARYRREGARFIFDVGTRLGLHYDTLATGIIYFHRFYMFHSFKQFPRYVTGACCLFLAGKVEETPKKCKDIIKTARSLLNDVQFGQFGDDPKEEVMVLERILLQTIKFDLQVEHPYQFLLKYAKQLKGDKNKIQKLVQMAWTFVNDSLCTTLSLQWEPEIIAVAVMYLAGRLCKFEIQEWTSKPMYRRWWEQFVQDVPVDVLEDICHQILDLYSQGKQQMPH
Procedure: (§1) Lanthascreen experiments were performed using commercially available reagents (Thermo Fisher) and according to the manufacturer’s instructions.

CDK9–cyclin T = molecular target: T1, CDK9–cyclin T (Homo sapiens, UniProt P50750); assay: Lanthascreen kinase binding assay, CDK9; settings: for Lanthascreen TR-FRET signal (raw ratio), sheet CDK9: third titration set (r25), duplicates
T1 construct: purchased Thermo Fisher
T1 sequence (P50750 whole entry): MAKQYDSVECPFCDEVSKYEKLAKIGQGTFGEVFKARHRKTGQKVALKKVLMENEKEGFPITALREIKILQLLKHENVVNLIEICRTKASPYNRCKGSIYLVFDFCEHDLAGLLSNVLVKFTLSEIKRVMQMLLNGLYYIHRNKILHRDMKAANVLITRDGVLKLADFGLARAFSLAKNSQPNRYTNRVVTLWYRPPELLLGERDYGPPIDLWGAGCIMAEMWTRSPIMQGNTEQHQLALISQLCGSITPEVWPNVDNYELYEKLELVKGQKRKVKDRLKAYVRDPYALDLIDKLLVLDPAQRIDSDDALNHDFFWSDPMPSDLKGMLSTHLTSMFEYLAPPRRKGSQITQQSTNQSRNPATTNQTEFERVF
T1 sequence (O60563 whole entry partner): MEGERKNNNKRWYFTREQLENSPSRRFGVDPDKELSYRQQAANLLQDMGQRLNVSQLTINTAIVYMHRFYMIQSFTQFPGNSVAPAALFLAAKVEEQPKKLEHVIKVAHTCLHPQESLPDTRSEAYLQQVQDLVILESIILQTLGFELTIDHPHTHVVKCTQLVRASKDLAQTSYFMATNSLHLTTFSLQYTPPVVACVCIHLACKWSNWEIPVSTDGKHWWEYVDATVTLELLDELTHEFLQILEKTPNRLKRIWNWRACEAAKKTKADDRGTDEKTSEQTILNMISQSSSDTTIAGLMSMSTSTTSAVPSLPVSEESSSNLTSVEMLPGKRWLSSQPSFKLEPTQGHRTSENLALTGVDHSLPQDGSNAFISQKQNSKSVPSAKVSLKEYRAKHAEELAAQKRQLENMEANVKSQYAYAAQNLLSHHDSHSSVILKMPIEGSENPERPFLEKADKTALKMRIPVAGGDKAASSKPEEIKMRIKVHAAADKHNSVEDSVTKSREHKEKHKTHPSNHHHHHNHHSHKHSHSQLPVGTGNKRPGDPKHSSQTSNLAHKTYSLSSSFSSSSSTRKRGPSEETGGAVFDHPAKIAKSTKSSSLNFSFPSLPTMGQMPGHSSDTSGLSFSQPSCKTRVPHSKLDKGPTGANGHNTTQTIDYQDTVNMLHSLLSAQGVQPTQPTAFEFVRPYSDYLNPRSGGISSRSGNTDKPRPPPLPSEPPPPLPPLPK
Procedure: as §1

CDK12–cyclin K and DDB1 = molecular target: T2, CDK12–cyclin K and DDB1 (Homo sapiens, UniProt Q16531+Q9NYV4, K965R); assay: TR-FRET ternary complex formation assay (compound titration); type: binding
T2 construct: His6–CDK12 (a.a. 713–1,052); full-length or beta-propeller B domain deletion (ΔBPB: a.a. 396–705 deleted) constructs of His6–DDB1ΔBPB, StrepII–Avi–DDB1, or His6–Spy–DDB1; made in house; host or cells: Trichoplusia ni High Five insect cells (baculovirus)
T2 sequence (Q9NYV4 713-1052 K965R): as the sequence (Q9NYV4 713-1052) above, with K253R counted along it
T2 sequence (O75909 1-267 partner): as the sequence (O75909 1-267 partner limits assumed) above
T2 sequence (Q16531 whole entry): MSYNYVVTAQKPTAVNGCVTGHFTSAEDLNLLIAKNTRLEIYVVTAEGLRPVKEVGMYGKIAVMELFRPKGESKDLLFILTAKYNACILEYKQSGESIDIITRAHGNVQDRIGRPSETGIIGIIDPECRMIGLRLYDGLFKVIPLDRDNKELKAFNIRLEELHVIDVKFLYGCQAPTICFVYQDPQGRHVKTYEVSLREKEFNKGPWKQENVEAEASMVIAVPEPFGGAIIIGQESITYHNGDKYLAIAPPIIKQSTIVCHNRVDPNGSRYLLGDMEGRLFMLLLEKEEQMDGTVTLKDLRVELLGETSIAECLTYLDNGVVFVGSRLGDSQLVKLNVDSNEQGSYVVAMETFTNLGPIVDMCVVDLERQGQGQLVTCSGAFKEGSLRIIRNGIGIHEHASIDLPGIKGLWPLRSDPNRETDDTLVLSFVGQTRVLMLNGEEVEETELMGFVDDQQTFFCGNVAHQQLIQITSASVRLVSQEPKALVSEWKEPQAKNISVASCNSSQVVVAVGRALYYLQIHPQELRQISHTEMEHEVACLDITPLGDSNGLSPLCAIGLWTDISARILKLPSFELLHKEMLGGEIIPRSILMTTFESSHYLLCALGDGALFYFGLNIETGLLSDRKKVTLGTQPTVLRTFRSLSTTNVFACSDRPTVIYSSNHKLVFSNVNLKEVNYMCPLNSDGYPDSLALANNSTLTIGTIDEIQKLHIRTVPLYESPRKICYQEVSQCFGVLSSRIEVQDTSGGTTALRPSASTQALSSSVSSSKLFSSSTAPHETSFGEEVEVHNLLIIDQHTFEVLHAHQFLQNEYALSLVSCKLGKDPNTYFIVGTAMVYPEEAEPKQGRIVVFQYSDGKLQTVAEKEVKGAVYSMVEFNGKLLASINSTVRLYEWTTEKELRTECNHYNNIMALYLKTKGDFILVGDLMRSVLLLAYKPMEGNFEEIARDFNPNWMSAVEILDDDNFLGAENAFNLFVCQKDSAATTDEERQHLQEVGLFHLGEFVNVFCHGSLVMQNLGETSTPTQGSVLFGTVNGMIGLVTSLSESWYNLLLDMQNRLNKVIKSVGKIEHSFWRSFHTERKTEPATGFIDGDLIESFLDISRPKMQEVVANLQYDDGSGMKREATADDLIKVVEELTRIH
Outline: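 Background fluorescence is reduced by reading 70 μs after excitation, and complex formation is followed as the 520:490 nm fluorescence ratio.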

CDK2–cyclin A = molecular target: T3, CDK2–cyclin A (Homo sapiens, UniProt P24941); assay: Lanthascreen kinase binding assay, CDK2; settings: for Lanthascreen signal, sheet CDK2: raw replicates, experiment r36-r46
T3 construct: purchased Thermo Fisher
Procedure: as §1

[1] = system: cyclin K–eGFP degradation reporter; assay: Cyclin K reporter stability analysis (dual-color cyclin K–eGFP reporter); type: cell-based, human; settings: source data sheet correlations; read-out: DC50
Outline: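 HEK293T–Cas9 cells carrying the cyclin K–eGFP reporter were seeded at 1 × 10^6 ml^−1 and exposed to drug or DMSO for 5 h. Flow cytometry gave geometric means of eGFP and mCherry in round, mCherry-positive cells. The eGFP/mCherry ratio was normalized to the mean of three DMSO controls.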

HEK293T cells = assay: Drug sensitivity assay (CellTiter-Glo viability) with or without MLN4924 pretreatment; type: cell-based, human; settings: Supplementary Table 2
Outline: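 First, cells (HEK293T–Cas9, 0.15 × 10^6 ml^−1) are exposed to DMSO or 100 nM MLN4924. Next, drugs follow at 2 h. Finally, CellTiter-Glo is read at day 3 and normalised to DMSO.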

IC50 (CDK12–cyclin K; Supplementary Table 2, read-out: Lanthascreen IC50 [nM] CDK12): 163 nM
Lanthascreen raw signal, sheet CDK12 (CDK12–cyclin K; compound 0.038147 nM): 0.01386 and 0.01388
Lanthascreen raw signal, sheet CDK12 (CDK12–cyclin K; compound 0.152588 nM): 0.01386 and 0.01359
Lanthascreen raw signal, sheet CDK12 (CDK12–cyclin K; compound 0.610352 nM): 0.01429 and 0.01468
Lanthascreen raw signal, sheet CDK12 (CDK12–cyclin K; compound 9.76563 nM): 0.01424 and 0.01408
Lanthascreen raw signal, sheet CDK12 (CDK12–cyclin K; compound 39.0625 nM): 0.0128 and 0.01286
Lanthascreen raw signal, sheet CDK12 (CDK12–cyclin K; compound 156.25 nM): 0.01155 and 0.01121
Lanthascreen raw signal, sheet CDK12 (CDK12–cyclin K; compound 625 nM): 0.01099 and 0.009814
Lanthascreen raw signal, sheet CDK12 (CDK12–cyclin K; compound 2500 nM): 0.009116 and 0.009896
Lanthascreen raw signal, sheet CDK12 (CDK12–cyclin K; compound 10000 nM): 0.008961 and 0.008941
IC50 (CDK9–cyclin T; Supplementary Table 2, read-out: Lanthascreen IC50 [nM] CDK9): 143 nM
Lanthascreen TR-FRET signal (raw ratio), sheet CDK9 (CDK9–cyclin T; compound 0.038147 nM): 0.02142 and 0.0184
Lanthascreen TR-FRET signal (raw ratio), sheet CDK9 (CDK9–cyclin T; compound 0.152588 nM): 0.02078 and 0.0198
Lanthascreen TR-FRET signal (raw ratio), sheet CDK9 (CDK9–cyclin T; compound 0.610352 nM): 0.02132 and 0.01977
Lanthascreen TR-FRET signal (raw ratio), sheet CDK9 (CDK9–cyclin T; compound 9.76563 nM): 0.02157 and 0.01927
Lanthascreen TR-FRET signal (raw ratio), sheet CDK9 (CDK9–cyclin T; compound 39.0625 nM): 0.01848 and 0.01637
Lanthascreen TR-FRET signal (raw ratio), sheet CDK9 (CDK9–cyclin T; compound 156.25 nM): 0.01444 and 0.01311
Lanthascreen TR-FRET signal (raw ratio), sheet CDK9 (CDK9–cyclin T; compound 625 nM): 0.01104 and 0.009432
Lanthascreen TR-FRET signal (raw ratio), sheet CDK9 (CDK9–cyclin T; compound 2500 nM): 0.009751 and 0.009192
Lanthascreen TR-FRET signal (raw ratio), sheet CDK9 (CDK9–cyclin T; compound 10000 nM): 0.008375 and 0.006377
TR-FRET signal at compound concentration 0.468 nM (CDK12–cyclin K and DDB1; raw replicate titration data): 0.2796 and 0.2825 and 0.2274 and 0.2285
TR-FRET signal at compound concentration 0.468 nM (CDK12–cyclin K and DDB1; raw titration data): 0.2796 and 0.2825 and 0.2274 and 0.2285
TR-FRET signal at compound concentration 2.16 nM (CDK12–cyclin K and DDB1; raw replicate titration data): 0.4207 and 0.4231 and 0.3525 and 0.3569
TR-FRET signal at compound concentration 2.16 nM (CDK12–cyclin K and DDB1; raw titration data): 0.4207 and 0.4231 and 0.3525 and 0.3569
TR-FRET signal at compound concentration 3.6 nM (CDK12–cyclin K and DDB1; raw replicate titration data): 0.7048 and 0.756 and 0.6232 and 0.6327
TR-FRET signal at compound concentration 3.6 nM (CDK12–cyclin K and DDB1; raw titration data): 0.7048 and 0.756 and 0.6232 and 0.6327
TR-FRET signal at compound concentration 7.92001 nM (CDK12–cyclin K and DDB1; raw replicate titration data): 1.442 and 1.475 and 1.209 and 1.266
TR-FRET signal at compound concentration 7.92001 nM (CDK12–cyclin K and DDB1; raw titration data): 1.442 and 1.475 and 1.209 and 1.266
TR-FRET signal at compound concentration 15.84 nM (CDK12–cyclin K and DDB1; raw replicate titration data): 2.559 and 2.574 and 2.155 and 2.284
TR-FRET signal at compound concentration 15.84 nM (CDK12–cyclin K and DDB1; raw titration data): 2.559 and 2.574 and 2.155 and 2.284
TR-FRET signal at compound concentration 30.96 nM (CDK12–cyclin K and DDB1; raw replicate titration data): 3.476 and 3.44 and 3.283 and 3.355
TR-FRET signal at compound concentration 30.96 nM (CDK12–cyclin K and DDB1; raw titration data): 3.476 and 3.44 and 3.283 and 3.355
TR-FRET signal at compound concentration 62.6401 nM (CDK12–cyclin K and DDB1; raw replicate titration data): 3.895 and 3.93 and 3.8348 and 3.842
TR-FRET signal at compound concentration 62.6401 nM (CDK12–cyclin K and DDB1; raw titration data): 3.895 and 3.93 and 3.8348 and 3.842
TR-FRET signal at compound concentration 125.28 nM (CDK12–cyclin K and DDB1; raw replicate titration data): 4.03 and 4.166 and 4.089 and 4.0346
TR-FRET signal at compound concentration 125.28 nM (CDK12–cyclin K and DDB1; raw titration data): 4.03 and 4.166 and 4.089 and 4.0346
TR-FRET signal at compound concentration 244.8 nM (CDK12–cyclin K and DDB1; raw replicate titration data): 3.953 and 4.0607 and 4.092 and 4.114
TR-FRET signal at compound concentration 244.8 nM (CDK12–cyclin K and DDB1; raw titration data): 3.953 and 4.0607 and 4.092 and 4.114
TR-FRET signal at compound concentration 993.601 nM (CDK12–cyclin K and DDB1; raw replicate titration data): 4.102 and 4.235 and 4.304 and 4.258
TR-FRET signal at compound concentration 993.601 nM (CDK12–cyclin K and DDB1; raw titration data): 4.102 and 4.235 and 4.304 and 4.258
TR-FRET signal at compound concentration 2001.6 nM (CDK12–cyclin K and DDB1; raw replicate titration data): 4.005 and 4.144 and 4.249 and 4.271
TR-FRET signal at compound concentration 2001.6 nM (CDK12–cyclin K and DDB1; raw titration data): 4.005 and 4.144 and 4.249 and 4.271
EC50 (CDK12–cyclin K and DDB1; in vitro complex formation, 50 nM CDK12–cyclin K, 100 nM DDB1, text and figures, read-out: TR-FRET EC50): 14 ± 0.3 nM
EC50 (CDK12–cyclin K and DDB1; sheet MOESM7, read-out: log TR-FRET EC50 (converted)): 14 nM
Lanthascreen signal, sheet CDK2 (CDK2–cyclin A; Compound 0.038147 nM): 0.0135 and 0.01393
Lanthascreen signal, sheet CDK2 (CDK2–cyclin A; Compound 0.152588 nM): 0.0137 and 0.01436
Lanthascreen signal, sheet CDK2 (CDK2–cyclin A; Compound 0.610352 nM): 0.01422 and 0.01354
Lanthascreen signal, sheet CDK2 (CDK2–cyclin A; Compound 9.76563 nM): 0.01407 and 0.01385
Lanthascreen signal, sheet CDK2 (CDK2–cyclin A; Compound 39.0625 nM): 0.01288 and 0.01319
Lanthascreen signal, sheet CDK2 (CDK2–cyclin A; Compound 156.25 nM): 0.01128 and 0.01245
Lanthascreen signal, sheet CDK2 (CDK2–cyclin A; Compound 625 nM): 0.01025 and 0.01024
Lanthascreen signal, sheet CDK2 (CDK2–cyclin A; Compound 2500 nM): 0.009848 and 0.009236
Lanthascreen signal, sheet CDK2 (CDK2–cyclin A; Compound 10000 nM): 0.00863 and 0.008753
IC50 (CDK2–cyclin A; Supplementary Table 2, read-out: Lanthascreen IC50 [nM] CDK2): 239 nM
DC50 [1]: 62 nM
SMILES: CC(C)n1cnc2c(NCc3ccc(-c4ccccn4)cc3)nc(N3CCOCC3)nc21 [DS19]
EC50 (HEK293T cells; Homo sapiens, HEK-293T, HEK293T viability, 72 h, compound alone, read-out: Cellular assays EC50): 203 nM
Toxicity rescue (HEK293T cells; MLN4924-mediated cytotoxicity rescue, 10 µM used where n.d.): 300%
